Test results from patent publication US11091476B2, “Protein kinase inhibitors, preparation method and medical use thereof” (Gan & Lee Pharmaceuticals, priority 2015, dated 2021).

System: U87-luc orthotopic brain xenograft
Assay: Pharmacodynamic study in U87-luc orthotopic brain xenograft model, median survival
Assay type: in vivo, BALB/c nude mice
Settings: for Medium survival: survival time range in brackets
Excerpt: Pharmacodynamic study of the compound 17 of this disclosure and the combination of compound 17 of the disclosure and temozolomide in a U87-luc orthotopic brain xenograft model
Adult female BALB/c nude mice were used as test animals. A U87-luc orthotopic brain xenograft model was used to study the effect of representative compound 17 of this disclosure on the median survival of female BALB/c nude mice after intragastric administration.
Healthy adult female BALB/c nude mice, 8 mice/group, 6-8 weeks old, weighing 18-22 g, purchased from Shanghai SIPPR-BK Laboratory Animal Co., Ltd., Animal Production License No: 2008001658261; 2008001658263. • 7.2.3 Preparation of the test compounds
An appropriate amount of compound 17 was weighed, and added with 0.1% hydroxyethyl cellulose/0.5% TWEEN®80 as vehicle to 0.3125 mg/ml;
An appropriate amount of Temozolomide sample was weighed, and added with 0.1% CMC-Na+0.25% TWEEN®80 as vehicle to 0.3 mg/ml.
Adult female BALB/c nude mice were anesthetized by intraperitoneal injection of sodium pentobarbital at a dose of 80 mg/kg. To relieve pain, animals were injected subcutaneously with buprenorphine at the time points 30 minutes before operation and 6 hours after operation at a dose of 0.1 mg/kg. Animals were observed after anesthesia until all animals had awakened.
The anesthetized animals were properly fixed, the animals' head skin was sterilized with 70% ethanol, and an approximately 10 mm long incision was made on the right side of the midline from the forehead to the ear line. 3×10^5 U87-luc cells (3 μl, mixture of PBS and Matrigel at a ratio of 4:1) were inoculated at the right frontal lobe that is 2 mm away from the right side of the bregma and is 1 mm away from the front side of the coronal suture in each animal. The incision was sutured with a No. 6 suture, and sterilized with polyvinylpyrrolidone. Animals are kept warm until anabiosis. Six days after tumor cell transplantation, tumor animals were grouped by stratified randomization based on […] signal intensity values, and the average bioluminescence reached 2.812E+07 photons/sec when the groups were administered in groups. Different animal groups were administered at different doses for a total of 35 days.

`CC1=Nc2c(F)cc(-c3nc(Nc4ccc(C5CCN(C)CC5)cn4)ncc3F)cc2C12CCCC2` [Example 17, 5-Fluoro-4-(7′-fluoro-2′-methylspiro[cyclopentane-1,3′-indol]-5′-yl)-N-(5-(1-methylpiperidin-4-yl)pyridin-2-yl)pyrimidine-2-amino] was tested, and the Medium survival (3.125 mg/kg QD intragastric) was 38.5(26-59) days, the Medium survival (6.25 mg/kg QD intragastric) was 43.5(31-48) days and the Medium survival (12.5 mg/kg QD intragastric) was 44.5(31-114) days. The Medium survival (25 mg/kg QD intragastric) was 61(41-76) days, the Medium survival (50 mg/kg QD intragastric) was 78.5(63->114) days and the “Effect on median survival, in words” value (dose-dependent) was “significantly prolong the median survival”.
